Holding throughout (experiment): biochemical
In experiment [1] the target is T1, A9UPE9 PDZ (Monosiga brevicollis, UniProt A9UPE9). An excerpt: (§1) Starting with the HPV18 E6 C-terminal sequence, we designed a number of peptides to test specific peptide positions, including HPV16 E6, HPV18 E6, SRETTV, SRETDV, RRETTV, and RRETDV, where underlined residues differ from HPV18 E6. As a control, we also tested human SNX27, SHANK1, and GIPC PDZ targets previously studied, including GIRK3 (sequence: ESESKV), BPIX (WDETNL), GAIP (QSSSEA), TYRP1 (PNQSVV), and B1AR (ASESKV), as well as previously identified mbSHANK targets, including A9V7Z4 (EDETAL), A9UP44 (QSESRL), and A9UXE1 (QDETAL).
T1 sequence (A9UPE9 7-98): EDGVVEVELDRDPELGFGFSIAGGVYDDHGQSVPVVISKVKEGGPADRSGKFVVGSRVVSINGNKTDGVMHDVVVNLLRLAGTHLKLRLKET
(§2) Figure 6 The binding isotherms from competition fluorescence polarization experiments of A9UPE9 (left, as labeled), and DLG1-1 (right, as labeled) PDZ domains are shown with the HPV18 E6 variant peptides SRETTV and SRETDV. The average values are shown, with error bars representing standard deviation from at least triplicate experiments.
(§3) Cells were lysed on ice using sonication.
(§4) Binding curves were visualized using Kaleidagraph.

In a further experiment the target is DLG1-1 PDZ (Homo sapiens, UniProt Q12959).
DLG1-1 PDZ, sequence (Q12959 220-317): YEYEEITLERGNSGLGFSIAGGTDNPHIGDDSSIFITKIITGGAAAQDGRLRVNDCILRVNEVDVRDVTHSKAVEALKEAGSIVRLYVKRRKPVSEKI
From the text: as §1, §2, §3, §4

Experiment [2] has as its target T1, A9UPE9 PDZ. The settings on record: fluorescence polarization. Background: In fluorescence polarisation assays a small probe gives low polarisation when free and higher when bound to something large.
Procedure: Expression and purification of all human and M. brevicollis PDZ domains followed a similar protocol, as previously reported for mbSHANK1 PDZ [48, 54]. Briefly, N-terminal His-tagged versions of A9UPE9 PDZ (residues 7–98) and DLG1-1 PDZ (residues 220–317) with cleavable TEV sites were inserted into the pET28a+ vector by gene synthesis (GenScript) and expressed in Escherichia coli BL21 (DE3) cells. Cells were lysed on ice using sonication. The lysis buffer used was 50 mM Tris pH 8.5, 200 mM NaCl, 10 mM CaCl2, 10 mM MgCl2, 20% (w/v) glycerol, 50 mM imidazole pH 8.5, 0.25 mM TCEP, DNAse, and protease inhibitor cocktail. Immobilized metal-affinity chromatography, 5 mL HisTrap (GE Healthcare, now Cytiva), was used to purify proteins from the clarified supernatant. The wash buffer used was 25 mM imidazole pH 8.5, 25 mM Tris pH 8.5, 250 mM NaCl, 10% (v/v) glycerol, and 0.25 mM TCEP, and the elution buffer was 400 mM imidazole pH 8.5, 25 mM Tris pH 8.5, 50 mM NaCl, 10% (v/v) glycerol, and 0.25 mM TCEP. Except for the protein used in binding experiments, the protein was then dialyzed in dialysis/gel filtration buffer (25 mM Tris pH 8.5, 150 mM NaCl, 10% (w/v) glycerol, 0.5 mM TCEP) and incubated at 4 °C overnight with TEV protease to cleave off the His-tag. The cleaved protein was then purified using a second nickel column with the wash and elution buffers described above. All proteins were further purified on a Superdex S75 column (Cytiva), using gel filtration buffer. Proteins were concentrated using Amicon centrifugal concentrators (3 MWCO). Concentrated proteins used in fluorescence polarization assays were flash frozen in liquid nitrogen for storage at −80 °C. The extinction coefficient values used for quantification of the proteins at A280 were 1490 cm^−1·M^−1 (A9UPE9) and 4470 cm^−1·M^−1 (DLG1-1).
Fluorescence polarization assays were conducted, as previously described [12, 45, 46, 48, 54, 60]. […] Competition experiments were performed in at least triplicate, and binding affinities were determined using SOLVER, as previously described [12, 45, 46, 48, 54, 60].
Where [3] appears, read: KI Values (μM) A9UPE9 PDZ, Table 3, competition FP, reporter 30 nM F*-HPV18 E6, 10.5 μM protein, at least triplicate, fitted with SOLVER.

Structures are written as SMILES. Several values for one entry are separate records, joined by “and”; a condition that tells them apart may be missing. Equal values may be shown once. Read-outs that look alike come from different tables or passages of the source. Peptide text beside a SMILES is read from it.

The Ki is the dissociation constant of the complex between target and ligand, obtained from inhibition or displacement. Higher therefore signals weaker binding. `CC(C)C[C@H](NC(=O)[C@H](CC(N)=O)NC(=O)[C@@H](NC(=O)[C@H](CCC(=O)O)NC(=O)[C@H](CC(=O)O)NC(=O)[C@@H](N)Cc1c[nH]c2ccccc12)[C@@H](C)O)C(=O)O` [BPIX] (H-WDETNL-OH): the values for the Ki on A9UPE9 PDZ [1] (setting [3]) and on DLG1-1 PDZ were 330 ± 160 µM and 460 ± 140 µM, respectively. Molecule `CC[C@H](C)[C@H](NC(=O)[C@@H](N)C(C)C)C(=O)N[C@@H](C)C(=O)N[C@H](C(=O)N[C@@H](CCC(=O)O)C(=O)N[C@H](C(=O)O)C(C)C)[C@@H](C)O` [DLL1/DLL4] (H-VIATEV-OH) showed a Ki on A9UPE9 PDZ [1] of 240 ± 40 µM.

What is called Kd is the constant that tells how readily two partners part at equilibrium. Low readings indicate higher affinity, high ones lower affinity. On to `CC(C)C[C@H](NC(=O)[C@H](CCCNC(=N)N)NC(=S)Nc1ccc2c(c1)C(=O)OC21c2ccc(O)cc2Oc2cc(O)ccc21)C(=O)N[C@@H](CCC(N)=O)C(=O)N[C@@H](CCCNC(=N)N)C(=O)N[C@@H](CCCNC(=N)N)C(=O)N[C@@H](CCCNC(=N)N)C(=O)N[C@@H](CCC(=O)O)C(=O)N[C@H](C(=O)N[C@@H](CCC(N)=O)C(=O)N[C@H](C(=O)O)C(C)C)[C@@H](C)O` [F*-HPV18 E6], for which the Kd at A9UPE9 PDZ [2] (30 nM reporter peptide, triplicate experiments) is 6.9 µM and < 10 µM. As to `CC(C)C[C@H](NC(=O)[C@H](CCC(N)=O)NC(=O)[C@@H](NC(=O)[C@H](CCC(=O)O)NC(=O)[C@H](CCCNC(=N)N)NC(=O)[C@H](CCCNC(=N)N)NC(=O)[C@@H](NC(=O)[C@H](CCCNC(=N)N)NC(=O)[C@H](CO)NC(=O)[C@H](CO)NC(=S)Nc1ccc2c(c1)C(=O)OC21c2ccc(O)cc2Oc2cc(O)ccc21)[C@@H](C)O)[C@@H](C)O)C(=O)O` [FITC-SSRTRRETQL], the dissociation constant (Kd) at A9UPE9 PDZ [2] (duplicate experiments) was determined as 19.5 ± 1.8 µM. Molecule `C[C@H](NC(=O)[C@H](CCC(=O)O)NC(=O)[C@H](CO)NC(=O)[C@H](CO)NC(=O)[C@H](CO)NC(=O)[C@@H](N)CCC(N)=O)C(=O)O` [GAIP] (H-QSSSEA-OH) yielded a Ki at A9UPE9 PDZ [1] (setting [3]) of over 1000 µM. Still for that read-out and setting: under `CC(C)[C@H](NC(=O)[C@H](CCCCN)NC(=O)[C@H](CO)NC(=O)[C@H](CCC(=O)O)NC(=O)[C@H](CO)NC(=O)[C@@H](N)CCC(=O)O)C(=O)O` [GIRK3] (H-ESESKV-OH) stands over 1000 µM; under `CC(C)C[C@H](NC(=O)[C@H](CCC(N)=O)NC(=O)[C@@H](NC(=O)[C@H](CCC(=O)O)NC(=O)[C@H](CCCNC(=N)N)NC(=O)[C@H](CCCNC(=N)N)NC(=O)[C@@H](NC(=O)[C@H](CCCNC(=N)N)NC(=O)[C@H](CO)NC(=O)[C@@H](N)CO)[C@@H](C)O)[C@@H](C)O)C(=O)O` [HPV16 E6], 66 ± 24 µM; under `CC(C)C[C@H](NC(=O)[C@@H](N)CCCNC(=N)N)C(=O)N[C@@H](CCC(N)=O)C(=O)N[C@@H](CCCNC(=N)N)C(=O)N[C@@H](CCCNC(=N)N)C(=O)N[C@@H](CCCNC(=N)N)C(=O)N[C@@H](CCC(=O)O)C(=O)N[C@H](C(=O)N[C@@H](CCC(N)=O)C(=O)N[C@H](C(=O)O)C(C)C)[C@@H](C)O` [HPV18 E6], 16 ± 1 µM. At A9UPE9 PDZ [1] (setting [3]), `CC(C)C[C@H](NC(=O)[C@H](CCCNC(=N)N)NC(=O)[C@H](CO)NC(=O)[C@H](CCC(=O)O)NC(=O)[C@H](CO)NC(=O)[C@@H](N)CCC(N)=O)C(=O)O` [Peptide A9UP44] (H-QSESRL-OH) yielded a Ki of 64 ± 35 µM. With `CC(C)[C@H](NC(=O)[C@H](CO)NC(=O)[C@H](CO)NC(=O)[C@H](CCC(=O)O)NC(=O)[C@H](CO)NC(=O)CN)C(=O)O` [Peptide A9UWP5_MONVE] (H-GSESSV-OH), at A9UPE9 PDZ [1], the Ki came to 490 ± 110 µM. For the molecule `CC(C)C[C@H](NC(=O)[C@H](C)NC(=O)[C@@H](NC(=O)[C@H](CCC(=O)O)NC(=O)[C@H](CC(=O)O)NC(=O)[C@@H](N)CCC(N)=O)[C@@H](C)O)C(=O)O` [Peptide A9UXE1] (H-QDETAL-OH), at A9UPE9 PDZ [1] (setting [3]), the Ki was determined as 460 ± 210 µM.

Take `CC(C)[C@H](NC(=O)[C@@H](NC(=O)[C@H](CO)NC(=O)[C@H](CCC(=O)O)NC(=O)[C@H](CCCNC(=N)N)NC(=O)[C@@H](N)Cc1c[nH]cn1)[C@@H](C)O)C(=O)O` [Peptide A9V6G5_MONBE] (H-HRESTV-OH): the Ki at A9UPE9 PDZ [1] was < 100 µM and 97 µM.

In the case of `CC(C)C[C@H](NC(=O)[C@H](C)NC(=O)[C@@H](NC(=O)[C@H](CCC(=O)O)NC(=O)[C@H](CC(=O)O)NC(=O)[C@@H](N)CCC(=O)O)[C@@H](C)O)C(=O)O` [Peptide A9V7Z4] (H-EDETAL-OH), the Ki on A9UPE9 PDZ [1] (setting [3]) is 580 ± 160 µM; on DLG1-1 PDZ it was 460 ± 190 µM. The molecule `CC(C)[C@H](NC(=O)[C@H](CCCCN)NC(=O)[C@H](CO)NC(=O)[C@H](CCC(=O)O)NC(=O)[C@H](CO)NC(=O)[C@H](C)N)C(=O)O` [Peptide B1AR] (H-ASESKV-OH) registered a Ki at A9UPE9 PDZ [1] (setting [3]) of 95 ± 30 µM.

`CC(C)[C@H](NC(=O)[C@@H](NC(=O)[C@H](CO)NC(=O)[C@H](CCC(N)=O)NC(=O)[C@H](CC(N)=O)NC(=O)[C@@H]1CCCN1)C(C)C)C(=O)O` [TYRP1] (H-PNQSVV-OH): the Ki at A9UPE9 PDZ [1] (setting [3]) was 97 ± 24 µM.

Values taken from paper PMC8512817 (Molecules, 2021).
